Results: patent US11603343B2, “Inhibition of DYRK1A kinase” (Ankh Life Sciences Limited, priority 2020, dated 2023)

Target: T1, human DYRK1A (Homo sapiens, UniProt Q13627)
T1 construct: host or cells: E. coli BL21(DE3)
Experiment: ELISA DYRK1A non-radioactive phosphorylation assay (HT-PRD substrate)
Assay type: biochemical
Experimental: In order to determine the effectiveness of the DYRK1A inhibitors of the invention, a series of ELISA assays were performed, along with Western Blot assays.
The ELISA assays were devised as a modified form of the assay described in Liu et al. “An ELISA DYRK1A non-radioactive assay suitable for the characterization of inhibitors,” F1000Research 2017, 6:42 (doi: 10.12688/f1000research.10582.1), incorporated by reference herein in its entirety.
Specifically, human DYRK1A (Addgene #38913) and HT-PRD (Addgene #87755) plasmids were obtained from Addgene and were expressed and purified using Ni affinity chromatography, as explained below. Proteins were quantified by the conventional Bradford method and stored at −80° C. until used.
HT-PRD was diluted in dilution buffer (25 mM Tris-HCl, pH 7.4 and 100 mM NaCl) to 4 ng/μL and used to coat a 96-well plate (BD Falcon #353072) with 100 μL per well at 4° C. overnight.
The wells were next washed with dilution buffer 3 times to remove unbound materials, and then the wells were blocked with 150 μL blocking buffer (2% BSA, 1×PBS, and 0.25% Tween 20) at room temperature for 60 minutes with shaking on a shaker.
After the 60-minute shaking period, the wells were washed thoroughly with dilution buffer 3 times to prepare for the phosphorylation in the next step.
Duplicate DYRK1A phosphorylation reactions were performed in the wells with 100 μL reaction mixtures each containing 25 mM HEPES, pH 7.4, 100 mM NaCl, 5 mM MgCl2, 100 μM ATP, 1% DMSO, and 200 ng/mL DYRK1A. Separate reaction mixtures included a no-inhibitor DMSO control, harmine inhibitor, and different concentrations of the inhibitors of the present invention. The plate was left on a temperature-controlled shaker for 30 minutes at 30° C.
The phosphorylation reactions were terminated after the 30-minute shaking, by the addition of 20 mM EDTA. The wells were then washed with PBST (0.02% Tween 20).
HT-PRD phosphorylation was determined by the sandwich antibody staining protocol. […] The extent of the phosphorylation reactions was monitored at λ=405 nm. […]

[1] = tested at 5 μg/mL, significantly greater than DMSO and any of the other fractions at the same level of use (FIG. 1)

Structure (SMILES)	inhibition of DYRK1A [1]	inhibition of DYRK1A (reference inhibitor, text says 100 μg/mL, sample table lists harmine 2 μM and 10 μM (FIG. 1))
Cc1c(O)cc(C(C)C)c(O)c1Cc1cc(O)c(C(C)C)cc1O [compound XVIII]	very pronounced inhibition of DYRK1A	
Cc1c(O)cc(C(C)C)c(O)c1CC1=CC(=O)C(C(C)C)=CC1=O [compound XVII]	very pronounced inhibition of DYRK1A	
COc1ccc2c3c([nH]c2c1)C(C)=NCC3 [harmaline, reference compound]		showed inhibition of DYRK1A
